According to ChEMBL document CHEMBL3108723, “Combatting resistant bacteria with the help of Beta-lactamase inhibitors” (2014):

What was measured:
Type in all cases: functional
Pseudomonas aeruginosa [1] = test: Antibacterial activity against Pseudomonas aeruginosa producing PER-1 and OXA-10 beta-lactamase assessed as reduction in MIC of ceftazidime at […] by broth microdilution method relative to control
Pseudomonas aeruginosa [2] = test: Antibacterial activity against Pseudomonas aeruginosa producing AmpC beta-lactamase assessed as reduction in MIC of ceftazidime at […] by broth microdilution method relative to control
Klebsiella pneumoniae = test: Antibacterial activity against Klebsiella pneumoniae producing KPC2 beta-lactamase assessed as reduction in MIC of ceftazidime at […] by broth microdilution method relative to control

Measured: fold change (FC)

CC1=C[C@@H](C(=O)NCc2cc(=O)c(O)c[nH]2)N2C[C@@H]1N(OS(=O)(=O)O)C2=O
4: all assays above

COCC1=C[C@@H](COC)N2C[C@@H]1N(OS(=O)(=O)[O-])C2=O.[Na+]
4: all assays above

CC1=C[C@@H](C(N)=O)N2C[C@@H]1N(OS(=O)(=O)[O-])C2=O.[Na+]
4: all assays above
